Measured values reported in patent US6440984B1, “Use of aryl-substituted pyrimidines as insecticidal and acaricidal agents” (BASF Aktiengesellschaft, priority 1998, dated 2002).

Key:
[1] = test system: Diabrotica Virgifera Virgifera Leconte, 3rd Instar Western Corn Rootworm (WCR); experiment: Western corn rootworm (WCR) soil test, mortality at 5 days; format: in vivo; conditions: rating scale; for pest or weed control at 50 ppm: Diabrotica virgifera, 120 h, read-out: WCR 2^ND-SOIL 50 (ppm)
Protocol: Diabrotica Virgifera Virgifera Leconte, 3rd Instar Western Corn Rootworm (WCR) One cc of fine talc is placed in a 30 mL wide-mouth screw-top glass jar. One mL of the appropriate acetone test solution is pipetted onto the talc so as to provide 1.25 mg of active ingredient per jar. The jars are set under a gentle air flow until the acetone is evaporated. The dried talc is loosened, 1 cc of millet seed is added to serve as food for the insects and 25 mL of moist soil is added to each jar. The jar is capped and the contents thoroughly mixed mechanically. Following this, ten 3rd instar rootworms are added to each jar and the jars are loosely capped to allow air exchange for the larvae. The treatments are held for 5 days when mortality counts are made. Missing larvae are presumed dead, since they decompose rapidly and can not be found. The concentrations of active ingredient used in this test correspond approximately to 50 kg/ha.

[2] = test system: Tetranychus Urticae (OP-resistant strain), 2-spotted Spider Mite (TSM); experiment: Two-spotted spider mite (TSM) plant-dip test, mortality after 2 days; format: in vivo; conditions: rating scale; for pest or weed control at 300 ppm: Tetranychus urticae, 48 h, read-out: TSM AD-FOLIAR 300 (ppm)
Protocol: (§1) Test solutions are prepared by dissolving the test compound in a 35% acetone in water mixture to give a concentration of 10,000 ppm. Subsequent dilutions are made with water as needed.
Tetranychus Urticae (OP-resistant strain), 2-spotted Spider Mite (TSM)
Sieva lima bean plants with primary leaves expanded to 7-8 cm are selected and cut back to one plant per pot. A small piece is cut from an infested leaf taken from the main colony and placed on each leaf of the test plants. This is done about 2 hours before treatment to allow the mites to move over to the test plant to lay eggs. The size of the cut, infested leaf is varied to obtain about 100 mites per leaf. At the time of test treatment, the piece of leaf used to transfer the mites is removed and discarded. The newly-infested plants are dipped in the test solution for 3 seconds with agitation and set in the hood to dry. After 2 days, one leaf is removed and mortality counts are made.

[3] = test system: Aphis Fabae, Mixed Instar, Bean Aphid (BA); experiment: Bean aphid (BA) foliar spray test, mortality after 2 days; format: in vivo; conditions: rating scale; for pest or weed control at 300 ppm: Aphis fabae, 48 h, read-out: BA AD-FOLIAR 300 (ppm)
Protocol: as §1
Aphis Fabae, Mixed Instar, Bean Aphid (BA)
(§2) Pots containing single nasturtium plants (Tropaeolum sp.) about 5 cm tall are infested with about 100-200 aphids one day before the test. Each pot is sprayed with the test solution for 2 revolutions of a 4 rpm turntable in a hood. The spray is directed to give complete coverage of the plants and aphids. The sprayed pots are set on their sides on white trays and held for 2 days, following which mortality estimates are made. Essentially the same method is used with respect to cotton aphid (CA).

[4] = test system: Spodoptera Eridania, 3rd Instar Larvae, Southern Armyworm (SAW); experiment: Southern armyworm (SAW) leaf-dip test, observations at 5 days; format: in vivo; conditions: Southern Army Worm, rating scale; for pest or weed control at 1000 ppm: Spodoptera eridania, foliar, 120 h, read-out: SAW 2^ND-FOLIAR 1000 (ppm)
Protocol: as §1
Spodoptera Eridania, 3rd Instar Larvae, Southern Armyworm (SAW)
A Sieva lima bean leaf expanded to 7-8 cm in length is dipped in the test solution with agitation for 3 seconds and allowed to dry in a hood. The leaf is then placed in a 100×10 mm petri dish containing a damp filter paper on the bottom and ten 3rd instar caterpillars. At 5 days, observations are made of mortality, reduced feeding, or any interference with normal molting.

[5] = test system: Cotton Aphid (CA); experiment: Cotton aphid (CA) foliar spray test, essentially the bean aphid method; format: in vivo; conditions: rating scale
Protocol: as §1, §2

SMILES | WCR 2^ND-SOIL 50 (ppm) [1] | TSM AD-FOLIAR 300 (ppm) [2] | BA AD-FOLIAR 300 (ppm) [3] | pest or weed control at 50 ppm [1] [%] | also measured
FC(F)(F)c1cccc(Oc2nccc(-c3ccccc3)n2)c1 [Compound 5] | C (C 76-100% kill) | B (B 45-75% kill) | A (A 0-45% kill) | – | SAW 2^ND-FOLIAR 1000 (ppm) [4]: A (A 0-45% kill)
CCc1ccc(-c2ccnc(Oc3ccc(Cl)c(Cl)c3)n2)cc1 [Compound 12] | C (C 76-100% kill) | C (C 76-100% kill) | – | – | SAW 2^ND-FOLIAR 1000 (ppm) [4]: C (C 76-100% kill)
Fc1ccc(Oc2nccc(-c3cccc(C(F)(F)F)c3)n2)cc1C(F)(F)F [Compound 21] | C (C 76-100% kill) | A (A 0-45% kill) | A (A 0-45% kill) | – | –
Fc1ccc(-c2ccnc(Oc3ccc(F)c(C(F)(F)F)c3)n2)cc1 [Compound 22, 2-(3-Trifluoromethyl-4-fluorophenoxy)-4-(4-fluorophenyl)pyrimidine] | – | – | – | 76 to 100 | pest or weed control at 300 ppm [2]: 0 to 45%; pest or weed control at 300 ppm [3]: 45 to 75%; pest or weed control at 1000 ppm [4]: 0 to 45%
Fc1ccc(-c2ccnc(Oc3cccc(C(F)(F)F)c3)n2)cc1 [Compound 23] | B (B 45-75% kill) | A (A 0-45% kill) | – | – | –
Fc1ccc(Oc2nccc(-c3cccc(OC(F)(F)F)c3)n2)cc1C(F)(F)F [Compound 37] | B (B 45-75% kill) | A (A 0-45% kill) | A (A 0-45% kill) | – | SAW 2^ND-FOLIAR 1000 (ppm) [4]: C (C 76-100% kill)
FC(F)(F)Oc1cccc(-c2ccnc(Oc3cccc(C(F)(F)F)c3)n2)c1 [Compound 38] | C (C 76-100% kill) | A (A 0-45% kill) | A (A 0-45% kill) | – | –
FC(F)(F)Oc1cccc(-c2ccnc(Oc3ccc(Cl)c(C(F)(F)F)c3)n2)c1 [Compound 39] | B (B 45-75% kill) | A (A 0-45% kill) | – | – | –
FC(F)(F)Oc1cccc(-c2ccnc(Oc3cc(C(F)(F)F)cc(C(F)(F)F)c3)n2)c1 [Compound 42] | B (B 45-75% kill) | C (C 76-100% kill) | B (B 45-75% kill) | – | –
FC(F)(F)Oc1cccc(-c2ccnc(Oc3ccc(Cl)c(Cl)c3)n2)c1 [Compound 43] | C (C 76-100% kill) | C (C 76-100% kill) | C (C 76-100% kill) | – | –
FC(F)(F)Oc1ccc(-c2ccnc(Oc3ccc(Cl)c(Cl)c3)n2)cc1 [Compound 50] | C (C 76-100% kill) | – | B (B 45-75% kill) | – | SAW 2^ND-FOLIAR 1000 (ppm) [4]: A (A 0-45% kill)
Fc1cc(-c2ccnc(Oc3ccc(Cl)c(C(F)(F)F)c3)n2)cc(C(F)(F)F)c1 [Compound 51] | C (C 76-100% kill) | – | – | – | SAW 2^ND-FOLIAR 1000 (ppm) [4]: B (B 45-75% kill)
Fc1ccc(Oc2nccc(-c3ccc(OC(F)(F)F)cc3)n2)cc1Cl [Compound 55] | C (C 76-100% kill) | A (A 0-45% kill) | A (A 0-45% kill) | – | SAW 2^ND-FOLIAR 1000 (ppm) [4]: A (A 0-45% kill)
Fc1cc(-c2ccnc(Oc3cc(Cl)cc(Cl)c3)n2)cc(C(F)(F)F)c1 [Compound 59] | C (C 76-100% kill) | – | B (B 45-75% kill) | – | –
Fc1cc(-c2ccnc(Oc3cc(C(F)(F)F)cc(C(F)(F)F)c3)n2)cc(C(F)(F)F)c1 [Compound 60] | C (C 76-100% kill) | – | – | – | SAW 2^ND-FOLIAR 1000 (ppm) [4]: C (C 76-100% kill)
FC(F)(F)c1cc(-c2ccnc(Oc3ccccc3)n2)cc(Cl)c1Cl [Compound 63] | – | A (A 0-45% kill) | A (A 0-45% kill) | – | CA-FOLIAR 300 (ppm) [5]: C (C 76-100% kill)

SMILES | WCR 2^ND-SOIL 50 (ppm) [1] | TSM AD-FOLIAR 300 (ppm) [2] | BA AD-FOLIAR 300 (ppm) [3] | pest or weed control at 50 ppm [1] [%] | also measured
Fc1cccc(Oc2nccc(-c3cc(Cl)c(Cl)c(C(F)(F)F)c3)n2)c1 [Compound 64] | C (C 76-100% kill) | A (A 0-45% kill) | – | – | CA-FOLIAR 300 (ppm) [5]: A (A 0-45% kill)
Fc1ccc(Oc2nccc(-c3cccc(Cl)c3)n2)cc1C(F)(F)F [Compound 66] | C (C 76-100% kill) | A (A 0-45% kill) | – | – | CA-FOLIAR 300 (ppm) [5]: A (A 0-45% kill)
FC(F)(F)c1cccc(Oc2nccc(-c3cccc(Cl)c3)n2)c1 [Compound 67] | – | A (A 0-45% kill) | – | – | CA-FOLIAR 300 (ppm) [5]: C (C 76-100% kill)
Fc1cccc(-c2ccnc(Oc3ccc(F)c(C(F)(F)F)c3)n2)c1 [Compound 68] | – | B (B 45-75% kill) | – | – | CA-FOLIAR 300 (ppm) [5]: C (C 76-100% kill)
Fc1ccc(-c2ccnc(Oc3cccc(C(F)(F)F)c3)n2)cc1C(F)(F)F [Compound 71] | – | A (A 0-45% kill) | C (C 76-100% kill) | – | CA-FOLIAR 300 (ppm) [5]: B (B 45-75% kill)
Fc1cc(-c2ccnc(Oc3ccc(F)c(C(F)(F)F)c3)n2)ccc1Cl [Compound 78] | – | B (B 45-75% kill) | – | – | CA-FOLIAR 300 (ppm) [5]: B (B 45-75% kill)
Fc1ccc(Oc2ncc(Cl)c(-c3ccc(Cl)c(Cl)c3)n2)cc1C(F)(F)F [Compound 93, 2-(3-Trifluoromethyl-4-fluorophenoxy)-4-(3,4-dichlorophenyl)-5-chloropyrimidine] | – | – | – | – | melting point: 90 to 92 °C
Fc1ccc(Oc2nccc(-c3ccc(C(F)(F)F)cc3)n2)cc1C(F)(F)F [Compound 129] | – | – | – | 45 to 75 | pest or weed control at 300 ppm [3]: 45 to 75%; pest or weed control at 1000 ppm [4]: 0 to 45%
CCc1cnc(Oc2cccc(C(F)(F)F)c2)nc1-c1ccc(Cl)cc1 [Compound 131] | – | – | – | 76 to 100 | pest or weed control at 1000 ppm [4]: 0 to 45%
Fc1ccc(Oc2nccc(-c3ccc(Cl)cc3)n2)cc1F [Compound 139] | – | – | – | 76 to 100 | pest or weed control at 300 ppm [3]: 76 to 100%
FC(F)(F)c1ccc(-c2ccnc(Oc3cccc(C(F)(F)F)c3)n2)cc1 [Compound 144] | – | – | – | 76 to 100 | pest or weed control at 300 ppm [3]: 45 to 75%; pest or weed control at 1000 ppm [4]: 0 to 45%
FC(F)(F)c1ccc(-c2ccnc(Oc3ccc(Cl)c(C(F)(F)F)c3)n2)cc1 [Compound 145] | – | – | – | 76 to 100 | pest or weed control at 300 ppm [3]: 45 to 75%; pest or weed control at 1000 ppm [4]: 0 to 45%
CCc1cnc(Oc2cccc(C(F)(F)F)c2)nc1-c1cccc(C(F)(F)F)c1 [Compound 157] | – | – | – | 76 to 100 | pest or weed control at 300 ppm [2]: 45 to 75%; pest or weed control at 300 ppm [3]: 45 to 75%; pest or weed control at 1000 ppm [4]: 0 to 45%
CCc1cnc(Oc2ccc(Cl)c(C(F)(F)F)c2)nc1-c1cccc(C(F)(F)F)c1 [Compound 158] | – | – | – | 76 to 100 | pest or weed control at 1000 ppm [4]: 0 to 45%
CCCc1cnc(Oc2ccc(F)c(C(F)(F)F)c2)nc1-c1cccc(C(F)(F)F)c1 [Compound 160] | – | – | – | 76 to 100 | pest or weed control at 300 ppm [2]: 0 to 45%; pest or weed control at 1000 ppm [4]: 0 to 45%
Cc1cnc(Oc2cccc(C(F)(F)F)c2)nc1-c1ccccc1 [Compound 163] | – | – | – | 76 to 100 | pest or weed control at 300 ppm [2]: 45 to 75%; pest or weed control at 300 ppm [3]: 0 to 45%
